The record followed here is US12275731B2, “Azaindole inhibitors of wild-type and mutant forms of LRRK2” (DANA-FARBER CANCER INSTITUTE, INC., priority 2018, dated 2025).

Read-outs that look alike come from different tables or passages of the source.

One test deals with T1, LRRK2 WT enzyme (Homo sapiens, UniProt Q5S007).
T1 construct: purchased Thermo Fisher Scientific PR8604B
As to the kind of experiment: LRRK2 wild type kinase inhibition assay (ADP-Glo). Type of test: biochemical. The procedure: (§1) IC50 experiments were performed for inventive compounds. An exemplary kit to perform this assay includes the Adapta™ Screening Protocol and Assay Conditions by Invitrogen™ (Fisher Scientific™, Catalog No. PV5099).
(§2) All LRRK2 kinase inhibition assays were conducted by using Promega ADP-Glo™ Kinase assay systems (Catalog number; V4475). Inhibitors were tested with 12 concentrations over a 5-fold serial dilution series (50 μM, 10 μM, 2 μM, 400 nM, 80 nM, 16 nM, 3.2 nM, […]) and PF06447475 as positive control. For the LRRK2 wild type (WT) enzyme assay, each inhibitor was mixed with 0.2 μg/μL of substrate (LRRKtide, SignalChem, Richmond, BC, Canada), […] (Invitrogen™, Carlsbad, CA), 24 ng of LRRK2 WT enzyme (Thermo Fisher Scientific, PR8604B) in 384-well plate. For LRRK G2019S, each compound was mixed with 0.2 μg/μL of substrate, […], 16 ng of LRRK2 G2019S enzyme (SignalChem, L10-12GG). All samples were diluted with kinase reaction buffer (40 mmol/L TrisHCl, 10 mmol/L MgCl2, and 0.1 μg/μL BSA (bovine serum albumin)). After 2 hours at 25° C., ADP-Glo™ (Promega, Madison, WI) reagent was added and the samples were incubated at rt for 40 min. Finally, Kinase Detection Reagent was added and the resulting mixtures were allowed to react at rt for 10 min. Luminescence signals were detected using Synergy™ Neo2 microplate reader (Bio-Tek). Compound inhibition curve was fitted using Graphpad Prism 8.0 software.

A further test addresses LRRK2(G2019S) (Homo sapiens, UniProt Q5S007, G2019S). In words: LRRK2 G2019S kinase inhibition assay (ADP-Glo). It is filed as biochemical. Also noted: purchased SignalChem L10-12GG. Here is the method: as §1, §2
In general terms: ADP-Glo turns the ADP formed in a reaction into a luminescent signal.

[1] abbreviates: Table 1, read-out: IC50 (nM) LRRK2 wt.
Where [2] appears, read: Table 1, read-out: IC50 (nM) LRRK2 G2019S.
The mark [3] stands for this setting: Table 2, class symbols, read-out: Enzyme activity against LRRK2 WT (IC50).
[4] abbreviates: Table 2, class symbols, read-out: Enzyme activity against LRRK2 G2019S (IC50).

T1 sequence (Q5S007 970-2527 limits assumed): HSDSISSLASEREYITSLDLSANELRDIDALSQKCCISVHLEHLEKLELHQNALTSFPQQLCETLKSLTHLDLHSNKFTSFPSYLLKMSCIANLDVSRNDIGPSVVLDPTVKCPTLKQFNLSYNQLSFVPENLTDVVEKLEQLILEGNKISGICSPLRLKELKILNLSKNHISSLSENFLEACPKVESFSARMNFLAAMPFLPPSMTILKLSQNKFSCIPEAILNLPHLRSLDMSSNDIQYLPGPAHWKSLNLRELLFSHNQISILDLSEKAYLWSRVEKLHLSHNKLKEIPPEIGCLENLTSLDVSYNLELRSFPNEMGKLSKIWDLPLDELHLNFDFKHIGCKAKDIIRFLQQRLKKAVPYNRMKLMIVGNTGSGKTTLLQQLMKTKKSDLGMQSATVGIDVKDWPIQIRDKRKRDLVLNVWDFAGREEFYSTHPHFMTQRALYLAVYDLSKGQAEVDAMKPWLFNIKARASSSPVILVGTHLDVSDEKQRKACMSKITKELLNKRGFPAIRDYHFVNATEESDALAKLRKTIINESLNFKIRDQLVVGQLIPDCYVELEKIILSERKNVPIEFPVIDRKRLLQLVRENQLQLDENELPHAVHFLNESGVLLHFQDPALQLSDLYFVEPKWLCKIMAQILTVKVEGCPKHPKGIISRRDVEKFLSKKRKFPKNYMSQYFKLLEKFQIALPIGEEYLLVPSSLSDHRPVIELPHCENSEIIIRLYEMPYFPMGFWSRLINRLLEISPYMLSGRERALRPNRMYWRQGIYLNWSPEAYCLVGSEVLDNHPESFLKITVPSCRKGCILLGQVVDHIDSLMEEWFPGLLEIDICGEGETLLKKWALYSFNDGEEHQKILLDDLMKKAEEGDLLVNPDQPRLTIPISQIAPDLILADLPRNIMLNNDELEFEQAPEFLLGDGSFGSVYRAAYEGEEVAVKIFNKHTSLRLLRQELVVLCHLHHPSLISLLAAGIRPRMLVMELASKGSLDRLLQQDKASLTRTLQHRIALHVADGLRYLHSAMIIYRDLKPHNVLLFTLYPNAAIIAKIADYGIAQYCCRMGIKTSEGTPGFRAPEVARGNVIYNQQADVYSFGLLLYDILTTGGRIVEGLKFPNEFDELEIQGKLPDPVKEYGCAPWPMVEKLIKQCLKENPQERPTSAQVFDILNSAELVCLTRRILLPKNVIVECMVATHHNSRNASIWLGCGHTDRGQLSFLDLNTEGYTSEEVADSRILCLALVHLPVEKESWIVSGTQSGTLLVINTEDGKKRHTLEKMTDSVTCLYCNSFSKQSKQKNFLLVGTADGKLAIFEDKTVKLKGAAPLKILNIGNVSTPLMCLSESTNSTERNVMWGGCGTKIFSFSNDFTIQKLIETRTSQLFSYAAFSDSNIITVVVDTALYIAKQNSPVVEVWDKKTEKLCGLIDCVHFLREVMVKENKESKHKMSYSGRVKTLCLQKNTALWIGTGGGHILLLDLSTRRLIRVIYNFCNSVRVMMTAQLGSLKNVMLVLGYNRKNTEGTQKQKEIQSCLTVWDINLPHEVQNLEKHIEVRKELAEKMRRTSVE
LRRK2(G2019S), sequence (Q5S007 970-2527 G2019S limits assumed): as the sequence (Q5S007 970-2527 limits assumed) above, with G1050S counted along it

One may read the IC50 as the midpoint of a concentration-inhibition curve. Regarding `CNc1c(-c2cnn(C(C)(C)C#N)c2)cnc2[nH]ccc12` [Compound 1, 2-methyl-2-(4-(4-(methylamino)-1H-pyrrolo[2,3-b]pyridin-5-yl)-1H-pyrazol-1-yl)propanenitrile], the IC50 on LRRK2 WT enzyme (setting [1]) was 544 nM; on LRRK2(G2019S) (setting [2]), 326 nM.
Regarding `CNc1c(C(F)(F)F)cnc2[nH]cc(-c3cnn(C(C)(C)C#N)c3)c12` [Compound 7, 2-methyl-2-(4-(4-(methylamino)-5-(trifluoromethyl)-1H-pyrrolo[2,3-b]pyridin-3-yl)-1H-pyrazol-1-yl)propanenitrile], the IC50 on LRRK2 WT enzyme (setting [1]) was found to be 38 nM; on LRRK2(G2019S) (setting [2]), 26 nM.
For `CNc1c(-c2cnn(C3CCOCC3)c2)cnc2[nH]ccc12` [Compound 3, N-methyl-5-(1-(tetrahydro-2H-pyran-4-yl)-1H-pyrazol-4-yl)-1H-pyrrolo[2,3-b]pyridin-4-amine], in that order: 264 nM and 164 nM.
The corresponding values for `CCc1cc(-c2cnc3[nH]cc(Cl)c3c2NC(C)C)nn1C` [Compound 10, 3-chloro-5-(5-ethyl-1-methyl-1H-pyrazol-3-yl)-N-isopropyl-1H-pyrrolo[2,3-b]pyridin-4-amine] are 259 nM and 523 nM.
`CC(C)Nc1c(-c2ccc(C(=O)N3CCOCC3)cc2)cnc2[nH]ccc12` [Compound 48, (4-(4-(isopropylamino)-1H-pyrrolo[2,3-b]pyridin-5-yl)phenyl)(morpholino)methanone]: the IC50 on LRRK2 WT enzyme (setting [3]) and at LRRK2(G2019S) (setting [4]) was 10 to 100 nM throughout.
On to `CNc1c(-c2ccc(C(=O)N3CCOCC3)cc2)cnc2[nH]cc(Cl)c12` [Compound 90, (4-(3-chloro-4-(methylamino)-1H-pyrrolo[2,3-b]pyridin-5-yl)phenyl)(morpholino)methanone], for which the IC50 at LRRK2 WT enzyme (setting [3]) and on LRRK2(G2019S) (setting [4]) was below 10 nM throughout.
In the case of `O=C(c1ccc(-c2cnc3[nH]cc(Cl)c3c2NC2CC2)cc1)N1CCC(N2CCOCC2)CC1` [Compound 99, (4-(3-chloro-4-(cyclopropylamino)-1H-pyrrolo[2,3-b]pyridin-5-yl)phenyl)(4-morpholinopiperidin-1-yl)methanone], the IC50 was 10 to 100 nM at LRRK2 WT enzyme (setting [3]) and above 100 nM at LRRK2(G2019S) (setting [4]).
In the case of `CNc1c(-c2ccn(C)n2)cnc2[nH]cc(Cl)c12` [Compound 11, 3-chloro-N-methyl-5-(1-methyl-1H-pyrazol-3-yl)-1H-pyrrolo[2,3-b]pyridin-4-amine], the IC50 on LRRK2 WT enzyme (setting [1]) stood at 8.4 nM; at LRRK2(G2019S) (setting [2]), 30.9 nM.
For `O=C(c1ccc(-c2cnc3[nH]cc(Cl)c3c2NC2CC2)cc1)N1CCOCC1` [Compound 93, (4-(3-chloro-4-(cyclopropylamino)-1H-pyrrolo[2,3-b]pyridin-5-yl)phenyl)(morpholino)methanone], the IC50 at LRRK2 WT enzyme (setting [3]) and at LRRK2(G2019S) (setting [4]) was 10 to 100 nM in each case.
As for `CNc1c(-c2c3cc(OC)ccc3nn2C)cnc2[nH]cc(Cl)c12` [Compound 16, 3-chloro-5-(5-methoxy-2-methyl-2H-indazol-3-yl)-N-methyl-1H-pyrrolo[2,3-b]pyridin-4-amine], the IC50 on LRRK2 WT enzyme (setting [1]) was 6230 nM; at LRRK2(G2019S) (setting [2]) it was above 10000 nM.
Regarding `COCCNc1c(-c2cnn([C@H]3CCN(C(C)=O)C[C@@H]3F)c2)cnc2[nH]cc(Cl)c12` [Compound 81, 1-((3S,4S)-4-(4-(3-chloro-4-((2-methoxyethyl)amino)-1H-pyrrolo[2,3-b]pyridin-5-yl)-1H-pyrazol-1-yl)-3-fluoropiperidin-1-yl)ethan-1-one], the IC50 at LRRK2 WT enzyme (setting [3]) is 10 to 100 nM; on LRRK2(G2019S) (setting [4]), above 100 nM.
With `CC(C)Nc1c(-c2ccn(C)n2)cnc2[nH]cc(Cl)c12` [Compound 12, 3-chloro-N-isopropyl-5-(1-methyl-1H-pyrazol-3-yl)-1H-pyrrolo[2,3-b]pyridin-4-amine], the IC50 at LRRK2 WT enzyme (setting [1]) stood at 136 nM; on LRRK2(G2019S) (setting [2]), 514 nM.
For the compound `CCNc1c(-c2cnn([C@H]3CCN(C(C)=O)C[C@@H]3F)c2)cnc2[nH]cc(Cl)c12` [Compound 78, 1-((3S,4S)-4-(4-(3-chloro-4-(ethylamino)-1H-pyrrolo[2,3-b]pyridin-5-yl)-1H-pyrazol-1-yl)-3-fluoropiperidin-1-yl)ethan-1-one], the IC50 on LRRK2 WT enzyme (setting [3]) and on LRRK2(G2019S) (setting [4]) was 10 to 100 nM throughout.
On to `CNc1c(-c2cnn(C(C)(C)C#N)c2)cnc2[nH]cc(Cl)c12` [Compound 4, 2-(4-(3-chloro-4-(methylamino)-1H-pyrrolo[2,3-b]pyridin-5-yl)-1H-pyrazol-1-yl)-2-methylpropanenitrile], for which the IC50 was determined as 15 nM on LRRK2 WT enzyme (setting [1]) and 14 nM at LRRK2(G2019S) (setting [2]).
Regarding `CNc1c(-c2cnn([C@H]3CCN(C4COC4)C[C@@H]3F)c2)cnc2[nH]cc(Cl)c12` [Compound 70, 3-chloro-5-(1-((3S,4S)-3-fluoro-1-(oxetan-3-yl)piperidin-4-yl)-1H-pyrazol-4-yl)-N-methyl-1H-pyrrolo[2,3-b]pyridin-4-amine], the IC50 at LRRK2 WT enzyme (setting [3]) and on LRRK2(G2019S) (setting [4]) was 10 to 100 nM in each case.
As to `CCc1cc(-c2cnc3[nH]cc(Cl)c3c2NC)nn1C` [Compound 9, 3-chloro-5-(5-ethyl-1-methyl-1H-pyrazol-3-yl)-N-methyl-1H-pyrrolo[2,3-b]pyridin-4-amine], the IC50 stood at 36.6 nM at LRRK2 WT enzyme (setting [1]) and 83.1 nM at LRRK2(G2019S) (setting [2]).
With `CNc1c(-c2cnn(C3CCOCC3)c2)cnc2[nH]cc(Cl)c12` [Compound 6, 3-chloro-N-methyl-5-(1-(tetrahydro-2H-pyran-4-yl)-1H-pyrazol-4-yl)-1H-pyrrolo[2,3-b]pyridin-4-amine], the IC50 at LRRK2 WT enzyme (setting [1]) came out at 10 nM; at LRRK2(G2019S) (setting [2]), 15 nM.
Consider `F[C@H]1CN(C2COC2)CC[C@@H]1n1cc(-c2cnc3[nH]ccc3c2NC2CCCC2)cn1` [Compound 31, N-cyclopentyl-5-(1-((3S,4S)-3-fluoro-1-(oxetan-3-yl)piperidin-4-yl)-1H-pyrazol-4-yl)-1H-pyrrolo[2,3-b]pyridin-4-amine], for which the IC50 on LRRK2 WT enzyme (setting [3]) and at LRRK2(G2019S) (setting [4]) was 10 to 100 nM each time.
For the compound `CC(C)Nc1c(-c2ccc(C(=O)N3CCC(N4CCOCC4)CC3)cc2)cnc2[nH]ccc12` [Compound 54, (4-(4-(isopropylamino)-1H-pyrrolo[2,3-b]pyridin-5-yl)phenyl)(4-morpholinopiperidin-1-yl)methanone], the IC50 at LRRK2 WT enzyme (setting [3]) and on LRRK2(G2019S) (setting [4]) was 10 to 100 nM each time.
As for `CNc1c(-c2cnn(C3CCN(C)CC3)c2)cnc2[nH]cc(Cl)c12` [Compound 5, 3-chloro-N-methyl-5-(1-(1-methylpiperidin-4-yl)-1H-pyrazol-4-yl)-1H-pyrrolo[2,3-b]pyridin-4-amine], the IC50 at LRRK2 WT enzyme (setting [1]) was found to be 22 nM; at LRRK2(G2019S) (setting [2]), 20 nM.
With `CNc1c(-c2cn(C3CCOCC3)nc2C2CC2)cnc2[nH]cc(Cl)c12` [Compound 13, 3-chloro-5-(3-cyclopropyl-1-(tetrahydro-2H-pyran-4-yl)-1H-pyrazol-4-yl)-N-methyl-1H-pyrrolo[2,3-b]pyridin-4-amine], the IC50 was 3600 nM at LRRK2 WT enzyme (setting [1]) and above 10000 nM at LRRK2(G2019S) (setting [2]).
As for `CNc1c(-c2cnn(C3CCN(C)CC3)c2)cnc2[nH]ccc12` [Compound 2, N-methyl-5-(1-(1-methylpiperidin-4-yl)-1H-pyrazol-4-yl)-1H-pyrrolo[2,3-b]pyridin-4-amine], the results for the IC50 at LRRK2 WT enzyme (setting [1]) and at LRRK2(G2019S) (setting [2]) were 891 nM and 825 nM, respectively.
For the compound `CCNc1c(-c2ccc(C(=O)N3CCOCC3)cc2)cnc2[nH]cc(Cl)c12` [Compound 91, (4-(3-chloro-4-(ethylamino)-1H-pyrrolo[2,3-b]pyridin-5-yl)phenyl)(morpholino)methanone], the IC50 at LRRK2 WT enzyme (setting [3]) and at LRRK2(G2019S) (setting [4]) was 10 to 100 nM each time.
`CC(=O)N1CC[C@H](n2cc(-c3cnc4[nH]ccc4c3NC3CCCC3)cn2)[C@@H](F)C1` [Compound 38, 1-((3S,4S)-4-(4-(4-(cyclopentylamino)-1H-pyrrolo[2,3-b]pyridin-5-yl)-1H-pyrazol-1-yl)-3-fluoropiperidin-1-yl)ethan-1-one]: the IC50 on LRRK2 WT enzyme (setting [3]) and on LRRK2(G2019S) (setting [4]) was 10 to 100 nM in each case.
As to `CNc1c(-c2nn(C)c3ccc(OC)cc23)cnc2[nH]cc(Cl)c12` [Compound 15, 3-(3-chloro-4-(methylamino)-1H-pyrrolo[2,3-b]pyridin-5-yl)-5-methoxy-1-methyl-1H-indazole], the IC50 amounted to 140 nM on LRRK2 WT enzyme (setting [1]) and 397 nM at LRRK2(G2019S) (setting [2]).
With `CNc1c(-c2nn(C)c3ccc(C#N)cc23)cnc2[nH]cc(Cl)c12` [Compound 14, 3-(3-chloro-4-(methylamino)-1H-pyrrolo[2,3-b]pyridin-5-yl)-1-methyl-1H-indazole-5-carbonitrile], the IC50 at LRRK2 WT enzyme (setting [1]) worked out at 95.2 nM; on LRRK2(G2019S) (setting [2]), 305 nM.
As for `CNc1c(C(F)(F)F)cnc2[nH]cc(-c3cnn(C4CCN(C)CC4)c3)c12` [Compound 8, N-methyl-3-(1-(1-methylpiperidin-4-yl)-1H-pyrazol-4-yl)-5-(trifluoromethyl)-1H-pyrrolo[2,3-b]pyridin-4-amine], the IC50 at LRRK2 WT enzyme (setting [1]) was found to be 103 nM; on LRRK2(G2019S) (setting [2]), 61 nM.
